As usually defined, the IC50 is the concentration needed to halve the response being measured. What is called AUC is concentration integrated over time. As a reminder, the Cmax is the peak of the concentration-time curve.

Consider eleven compounds from US10711000B2 (Fronthera U.S. Pharmaceuticals LLC, priority 2018, dated 2020).

The target in series [1] is T1, Autotaxin (Homo sapiens, UniProt Q13822).
T1 construct: from tissue; host or cells: pooled human plasma
The series can be described thus: LPA formation in pooled human plasma (ex vivo autotaxin inhibition). It counts as biochemical. Conditions: 2 hours incubation. In short, it runs like this: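 Ex vivo: LPA 18:2 and 20:4 levels in compound-treated versus untreated pooled human plasma after 2 h incubation, measured by butanol extraction and negative-mode MRM LC/MS/MS against calibration standards. IC50 from non-linear fit of inhibition versus concentration.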

The nature of series [2]: Pharmacokinetics after a single oral dose in SD rats. In kind it is in vivo. Conditions: Sprague-Dawley, rat, plasma, single oral dose in 0.5% methylcellulose; for half-life: read-out: T½ (converted). An excerpt:
(§1) The pharmacokinetics and pharmacodynamics of test compounds after a single oral dose were investigated in SD rats, Beagle dog and Cynomolgus monkey. SD Rats (200-250 g) were purchased from Beijing Vital River Laboratory Animal Technology Co., Ltd. Male Beagle Dog, 6-9 kg, were purchased from Beijing Mashall. Male Cynomolgus monkeys, 3-5 kg, were purchased from Suzhou Xishan Zhongke Drugs Research and Development Co., Ltd. Following arrival, the animals were acclimated for 7 days in individual cages maintained at ambient temperature, 34 to 68% relative humidity, and 12-h light/dark cycles. Just prior to dose administration the rats were fasted overnight with free access to water. Animals were given 10 mL/kg of formulated compound in 0.5% methylcellulose (MC) by oral gavage, and the animals were fed four hours after dosing. The animals were manually restrained at the designated time points (pre-dose, 0.5, 1, 3, 6, 9, 12, and 24 h post-dose) to collect blood. Approximately 120 μL of blood was collected via orbital sinus into K2EDTA tubes. The blood samples were centrifuged at 5000 rpm for 10 min at 4° C. to obtain plasma samples.
To determine the compound concentration in the plasma samples, a 10× calibration standard of compound were prepared by serial dilution in DMSO: 20000, 10000, 5000, 2000, 1000, 500, 200, 100, 50, 20, and 10 ng/mL. 3 μL of calibration standard solution was added into 27.0 μL of blank plasma in 1.5-mL microcentrifuge tubes to generate 1× calibration standards. The 30.0 μL of standards or study plasma was mixed with 200 μL of acetonitrile (containing 5 ng/mL verapamil for internal control) in a 1.5-mL microcentrifuge tube. After vertexing for 1 minute and centrifuging at 10000 rpm for 10 min, 180 μL of supernatant was transferred into a 96-well plate and the compound concentration in the plasma was quantitated using LC/MS/MS together with standards. Briefly, 1 μL of the solutions were injected for LC-MS/MS analysis using an Agilent Zorbax C18 column (50×2.1 mm, 3.5 μm) with mobile phase A [5 mM NH4Ac (0.1% FA)] and phase B [Methanol (0.1% FA)]. Mass spectrometer parameters optimization for compound was performed by infusing standard diluted at 1 μg/mL in water/methanol (1/1, v/v) directly in the ionization source at a flow of 10 μL/min. Quantitative data were acquired in multiple reaction monitoring (MRM) positive APCI mode.

Series [3] deals with T2, Autotaxin (Rattus norvegicus, UniProt Q64610).
T2 construct: from tissue; host or cells: SD rats in vivo; plasma sampled after a single oral dose
In words: Pharmacodynamics: LPA 18:2 inhibition in plasma of SD rats after oral dose. The note with it: single oral dose, LPA18:2 inhibition vs plasma concentration of compound, read-out: In vivo rat IC50 (LPA 18:2) (converted).
From the text: as §1
Autotaxin is a secreted phosphodiesterase that converts lysophosphatidylcholine (LPC) into lysophosphatidic acid (LPA), and LPA 18:2 formation was used to evaluate the efficacy of autotaxin inhibitors. Therefore, the LPA 18:2 formation in response to drug administration was analyzed in each time point to assess the pharmacodynamics of test compounds. To determine the LPA18:2 concentration in study plasma, a 10× calibration standard of LPA 18:2 were prepared by serial dilution in butyl alcohol: 20000, 10000, 5000, 2000, 1000, 500, 200, 100, 50, 20, and 10 ng/mL. 3 μL of calibration standard solution was added into 27.0 μL of blank plasma in 1.5-mL microcentrifuge tubes to generate 1× calibration standards. The 30.0 μL of standards or study plasma was added into 1.5-mL microcentrifuge tubes. 200 μL of butyl alcohol (containing 25.0 ng/mL LPA17:0 for internal control) was added into each 1.5-mL microcentrifuge tube containing study plasma or calibration standards. After vortexing for 1 minute and centrifuging at 10000 rpm for 10 min, 180 μL of supernatant was transferred into a 96-well plate and the LPA18:2 concentration in the plasma was quantitated using LC/MS/MS together with standards. Briefly, 8 μL of the solutions were injected for LC-MS/MS analysis using an ACQUITY UPLC BEH C18 column (2.1×50 mm, 1.7 μm) with mobile phase A [20 mM NH4OAC in water (0.1% FA)] and phase B [5 mM NH4OAC in water/0.2% FA in ACN=5:95]. Mass spectrometer parameters optimization for LPA18:2 were performed by infusing standard diluted at 1 μg/mL in butyl Alcohol directly in the ionization source, at a flow of 10 μL/min. Deprotonated molecular ion at m/z 433.2 ([M−H]−) for LPA18:2, and abundant product ion at m/z 152.8 for LPA18:2 were obtained. Quantitative data were acquired in multiple reaction monitoring (MRM) negative electrospray ionization mode
The percentage of LPA18:2 inhibition was plotted against the corresponding concentration of compound and the IC50 was calculated through non-linear regression fitting.

[4] abbreviates: LPA 18:2 by LC/MS/MS, read-out: LPA formation (18:2) (IC50).
The mark [5] stands for this setting: LPA 20:4 by LC/MS/MS, read-out: LPA formation (20:4) (IC50).

Each structure is given as a SMILES string. Read-outs that look alike come from different tables or passages of the source. Bounds are passed on as bounds.

As to `CN(c1nc(-c2ccc(F)cc2)c(C#N)s1)c1c(C2CC2)nn2cc(F)c(N3CCN(CC(=O)N4CC(O)C4)CC3)cc12` [Compound 113, 2-((2-cyclopropyl-6-fluoro-5-(4-(2-(3-hydroxyazetidin-1-yl)-2-oxoethyl)piperazin-1-yl)pyrazolo[1,5-a]pyridin-3-yl)(methyl)amino)-4-(4-fluorophenyl)thiazole-5-carbonitrile], the IC50 in series [1] (setting [4]) is ≤ 100 nM. The IC50 in series [1] (setting [5]) was ≤ 100 nM. In series [2], the AUC worked out at 963 ± 501 ng·h/mL, the Cmax stood at 177 ± 99 ng/mL and the half-life was 2.92 ± 0.31 h. The IC50 in series [3] was 14.8 nM.
For the compound `CN(c1nc(-c2ccc(F)cc2)c(C#N)s1)c1c(C2CC2)nn2cc(F)c(N3CC4(CN(C(=O)[C@H]5CCOC5)C4)C3)cc12` [Compound 114, (S)-2-((2-cyclopropyl-6-fluoro-5-(6-(tetrahydrofuran-3-carbonyl)-2,6-diazaspiro[3.3]heptan-2-yl)pyrazolo[1,5-a]pyridin-3-yl)(methyl)amino)-4-(4-fluorophenyl)thiazole-5-carbonitrile], the concentration for half-maximal inhibition (IC50) in series [1] (setting [4]) was ≤ 100 nM. Besides, the IC50 in series [1] (setting [5]) was ≤ 100 nM. In series [2], the AUC worked out at 1460 ± 1120 ng·h/mL, the Cmax was 140 ± 102 ng/mL and the half-life was 3.72 ± 2.5 h. For the same compound, in series [3], the IC50 is 16 nM.
`CCn1nc2ncc(N3CC4(CN(C(=O)[C@H]5CCOC5)C4)C3)cc2c1N(C)c1nc(-c2ccc(F)cc2)c(C#N)s1` [Compound 117]: in series [1] (setting [4]), the IC50 is ≤ 100 nM. Further, the IC50 in series [1] (setting [5]) is ≤ 100 nM. For the same compound, in series [2], the AUC was 2210 ± 704 ng·h/mL, the concentration peaked (Cmax) at 584 ± 265 ng/mL and the half-life is 4.36 ± 1.3 h. For the same compound, the IC50 in series [3] was 176 nM.
On to `CCn1nc2nc(C)c(N3CCN(CC(=O)N4CC(O)C4)CC3)cc2c1N(C)c1nc(-c2ccc(F)cc2)c(C#N)s1` [Compound 119, 2-((2-ethyl-5-(4-(2-(3-hydroxyazetidin-1-yl)-2-oxoethyl)piperazin-1-yl)-6-methyl-2H-pyrazolo[3,4-b]pyridin-3-yl)(methyl)amino)-4-(4-fluorophenyl)thiazole-5-carbonitrile], for which the results for the IC50 in series [1] (setting [4]), in series [1] (setting [5]) and in series [3] were ≤ 100 nM, ≤ 100 nM and 18.6 nM, respectively. This compound came in with an AUC in series [2] of 222 ± 160 ng·h/mL. This compound yielded a Cmax in series [2] of 96.2 ± 73 ng/mL. Also, the half-life in series [2] was 1.64 ± 1.27 h.
As for `CCn1nc2nc(C)c(N3CC4(CN(C(=O)C5CCOCC5)C4)C3)cc2c1N(C)c1nc(-c2ccc(F)cc2)c(C#N)s1` [Compound 122, 2-((2-ethyl-6-methyl-5-(6-(tetrahydro-2H-pyran-4-carbonyl)-2,6-diazaspiro[3.3]heptan-2-yl)-2H-pyrazolo[3,4-b]pyridin-3-yl)(methyl)amino)-4-(4-fluorophenyl)thiazole-5-carbonitrile], the IC50 in series [1] (setting [4]) is ≤ 100 nM. Besides, the IC50 in series [1] (setting [5]) was ≤ 100 nM. In series [2], the exposure (AUC) is 1090 ± 544 ng·h/mL, the peak level (Cmax) was 403 ± 341 ng/mL and the half-life is 2.99 ± 3 h. Further, the IC50 in series [3] is 26.8 nM.
Regarding `CCc1nn2cc(C)c(N3CC4(CN(C(=O)[C@H]5CCOC5)C4)C3)cc2c1N(C)c1nc(-c2ccc(F)cc2)c(C#N)s1` [Example 97, (S)-2-((2-ethyl-6-methyl-5-(6-(tetrahydrofuran-3-carbonyl)-2,6-diazaspiro[3.3]heptan-2-yl)pyrazolo[1,5-a]pyridin-3-yl)(methyl)amino)-4-(4-fluorophenyl)thiazole-5-carbonitrile], in series [1] (setting [4]), the IC50 is ≤ 100 nM. Moreover, the IC50 in series [1] (setting [5]) is ≤ 100 nM. Also, in series [2], the AUC worked out at 4690 ± 526 ng·h/mL, the concentration peaked (Cmax) at 336 ± 33.8 ng/mL and the half-life was 5.41 ± 1.7 h. For the same compound, the IC50 in series [3] was 20 nM.
Regarding `[2H]c1c(F)c(N2CCN(CC(=O)N3CC(O)C3)CC2)cc2c(N(C)c3nc(-c4ccc(F)cc4)c(C#N)s3)c(CC)nn12` [Example 103, 2-((2-ethyl-6-fluoro-5-(4-(2-(3-hydroxyazetidin-1-yl)-2-oxoethyl)piperazin-1-yl)pyrazolo[1,5-a]pyridin-3-yl-7-d)(methyl)amino)-4-(4-fluorophenyl)thiazole-5-carbonitrile], the IC50 in series [1] (setting [4]) is ≤ 100 nM. Also, the IC50 in series [1] (setting [5]) is ≤ 100 nM. Besides, in series [2], the AUC was found to be 1080 ± 313 ng·h/mL, the Cmax was found to be 209 ± 58 ng/mL and the half-life is 4.32 ± 1.5 h. In addition, the IC50 in series [3] was 48.6 nM.
As for `CCc1nn2cc(F)c(N3CC4(CN(C(=O)N5CC(O)C5)C4)C3)cc2c1N(C)c1nc(-c2ccc(F)cc2)c(C#N)s1` [Example 107, 2-((2-ethyl-6-fluoro-5-(6-(3-hydroxyazetidine-1-carbonyl)-2,6-diazaspiro[3.3]heptan-2-yl)pyrazolo[1,5-a]pyridin-3-yl)(methyl)amino)-4-(4-fluorophenyl)thiazole-5-carbonitrile], the IC50 in series [1] (setting [4]) and in series [1] (setting [5]) was ≤ 100 nM throughout.
`CCc1nn2cc(F)c(N3CC4(CN(C(=O)N5CCOCC5)C4)C3)cc2c1N(C)c1nc(-c2ccc(F)cc2)c(C#N)s1` [Example 108, 2-((2-ethyl-6-fluoro-5-(6-(morpholine-4-carbonyl)-2,6-diazaspiro[3.3]heptan-2-yl)pyrazolo[1,5-a]pyridin-3-yl)(methyl)amino)-4-(4-fluorophenyl)thiazole-5-carbonitrile]: the IC50 in series [1] (setting [4]) and in series [1] (setting [5]) was ≤ 100 nM throughout.
As for `CCc1nn2cc(F)c(N3CCC4(CC3)CN(C(=O)N3CC(O)C3)C4)cc2c1N(C)c1nc(-c2ccc(F)cc2)c(C#N)s1` [Example 110, 2-((2-ethyl-6-fluoro-5-(2-(3-hydroxyazetidine-1-carbonyl)-2,7-diazaspiro[3.5]nonan-7-yl)pyrazolo[1,5-a]pyridin-3-yl)(methyl)amino)-4-(4-fluorophenyl)thiazole-5-carbonitrile], the IC50 in series [1] (setting [4]) and in series [1] (setting [5]) was ≤ 100 nM in each case.
In the case of `CCc1nn2cc(F)c(N3CCC4(CN(C(=O)N5CC(O)C5)C4)C3)cc2c1N(C)c1nc(-c2ccc(F)cc2)c(C#N)s1` [Example 111, 2-((2-ethyl-6-fluoro-5-(2-(3-hydroxyazetidine-1-carbonyl)-2,6-diazaspiro[3.4]octan-6-yl)pyrazolo[1,5-a]pyridin-3-yl)(methyl)amino)-4-(4-fluorophenyl)thiazole-5-carbonitrile], the IC50 in series [1] (setting [4]) and in series [1] (setting [5]) was ≤ 100 nM each time.
